The subject of experiment [1] is Gram-positive cocci. Briefly: In vitro antibacterial activity. Format: cell-based, S. aureus, S. epidermidis and Streptococcus species. The method, then: Win 52,522 and Win 35,439 were solubilized in 0.1 ml of 0.5 N NaOH/mg of compound and diluted in sterile distilled water to 160 mcg/ml. Vancomycin and methicillin were solubilized in sterile distilled water to 1250 mcg/ml of base compound. The stock solutions were sterilized by filtration through membrane filters with a 0.45 μm pore size.
The bacterial cultures listed in Table I (hereinbelow) were grown overnight at 37° C. in MHB for all cultures except the Streptococcus strains. These were grown in BHI+10% NHS. The overnight broth cultures were adjusted to an optical density of 0.10 (650 nm, B L Spectronic 20) in sterile distilled water and subsequently diluted to 6.7×10^6 cells/ml in MHB or BHI+1% NHS.
Serial two-fold dilutions of the compound solutions were prepared in MHB (or in BHI+1% NHS for tests with Streptococci) and dispensed into 96-well microtiter trays in a volume of 0.1 ml/well using a Sandy Springs (Bellco Glass Co.) dispenser. The trays were then inoculated with 0.0015 ml of a suspension containing 6.7×10^6 cells/ml of the appropriate inoculum using a MIC-2000 inoculator (Dynatech Corp.) resulting in a final inoculum of approximately 1×10^4 cells/well or 1×10^5 cells/ml. The trays were incubated at 37° C. for 18-20 hours and the minimal inhibitory concentration (MIC), defined as the lowest concentration of compound to inhibit visible bacterial growth, was recorded. […]

Experiment [2] relates to Staphylococcus aureus Smith. In words: Mouse protection test, S. aureus Smith infection, multiple dose. Format: in vivo, ICR mice; Staphylococcus aureus. To be noted: for ED50: Staphylococcus aureus, 168 h, read-out: Protective Dose 50% (95% Confidence Limits). The method, then: ICR mice, female, 18-20 grams each.
Solutions of Win 52,522 and Win 35,439 were prepared by dissolving the appropriate weight of drug in 0.3 to 0.4 ml of 1 N NaOH and then bringing the solutions to the desired volume with distilled water. Methicillin and vancomycin were dissolved directly in distilled water.
Two and one-half ml of pool were added to 247.5 ml of 5% gastric mucin to provide the test inoculum containing 2.1×10^4 cells/ml.
Mice were inoculated intraperitoneally with 0.5 ml of the bacterial test inoculum.
2. Multiple dose test--Mice were medicated subcutaneously (0.2 ml) or orally (0.5 ml) at the following times: six hours and one hour preinfection (infection at 2 pm) and twice a day (8 a.m. and 3:30 p.m.) for the next two successive days.
Deaths were recorded daily for seven days for all tests. Fifty percent protective dose values (PD50's) were calculated using probit analysis [SAS Users Guide: Statistics, 1982 Edition, SAS Institute, Inc., Cary, N.C.].

Experiment [3] has as its system E. coli (8739). Briefly: In vitro antibacterial MIC/MBC test. Format: cell-based. To be noted: Escherichia coli, ATCC8739; E. coli ATCC No. 8739. Put shortly: (§1)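 Broth microdilution with two-fold serial dilutions in MHB (BHI+1% NHS for streptococci), final inoculum approx. 1×10^5 cells/ml, 37° C. for 18-20 hours. MIC is the lowest concentration preventing visible growth. For MBC, wells were subcultured onto MHA or BHI agar+10% NHS; the MBC is the lowest concentration yielding no recognizable colony.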

For experiment [4], the system named is P. aeruginosa (27853). In words: In vitro antibacterial MIC/MBC test. Format: cell-based. Conditions: Pseudomonas aeruginosa, ATCC27853; P. aeruginosa ATCC No. 27853. Put shortly:
as §1

Experiment [5] concerns E. coli AH719. Briefly: In vitro antibacterial MIC/MBC test. Format: cell-based. Conditions: Escherichia coli. Put shortly: as §1
The subject of experiment [6] is E. coli 2350. Briefly: In vitro antibacterial MIC/MBC test. To be noted: Escherichia coli. Format: cell-based. Put shortly:
as §1

In experiment [7] the test system is E. coli Vogel. In words: In vitro antibacterial MIC/MBC test. The format is cell-based. Conditions: Escherichia coli. Put shortly: as §1
Experiment [8] relates to P. aeruginosa (15442). In words: In vitro antibacterial MIC/MBC test. Format: cell-based. Conditions: Pseudomonas aeruginosa, ATCC15442; P. aeruginosa ATCC No. 15442. Put shortly: as §1
Experiment [9] relates to P. aeruginosa (9027). Briefly: In vitro antibacterial MIC/MBC test. To be noted: Pseudomonas aeruginosa, ATCC9027; P. aeruginosa ATCC No. 9027. Format: cell-based. Put shortly:
as §1

Experiment [10] relates to P. aeruginosa (7700). In words: In vitro antibacterial MIC/MBC test. The format is cell-based. Conditions: Pseudomonas aeruginosa, ATCC7700; P. aeruginosa ATCC No. 7700. Put shortly: as §1
Experiment [11] concerns P. aeruginosa MGH-2. In words: In vitro antibacterial MIC/MBC test. The format is cell-based. Conditions: Pseudomonas aeruginosa, MGH2. Put shortly:
as §1

The test system of experiment [12] is E. coli 198. In words: In vitro antibacterial MIC/MBC test. Format: cell-based. Conditions: Escherichia coli. Put shortly: as §1

Molecules are shown by their SMILES. In brackets after ≈: the same amount, converted by molar mass. Where a name gives a salt, the structure may show the parent alone. Read-outs that look alike come from different tables or passages of the source.

Turning to `COc1cccc(OC)c1C(=O)N[C@@H]1C(=O)N2[C@@H]1SC(C)(C)[C@@H]2C(=O)O` [Methicillin, 6-(2,6-dimethoxybenzamido)penicillanic acid sodium salt], the bactericidal / bacteriostatic entry in experiment [1] (Gram-positive cocci) is given as “bactericidal”.

Consider `CCn1cc(C(=O)O)c(=O)c2ccc(-c3cc(C)nc(C)c3)cc21` [Win 35,439, 1-ethyl-1,4-dihydro-7-(2,6-dimethyl-4-pyridinyl)-4-oxo-3-quinolinecarboxylic acid], for which the Survivors/Total in experiment [2] (3.13 mg/kg po) was 0/10; in [2] (3.13 mg/kg sc), 1/10; in experiment [2] (6.25 mg/kg po), 4/10; in experiment [2] (6.25 mg/kg sc) it was 3/10; in [2] (12.5 mg/kg po) it was 9/10; in experiment [2] (12.5 mg/kg sc) it was 10/10. For the same compound, the Survivors/Total in [2] (25 mg/kg po) and in [2] (25 mg/kg sc) was 10/10 in each case. Further, the results for the ED50 in experiment [2] (po) and in [2] (sc) were 7.2 mg/kg and 7.1 mg/kg, respectively. The MBC in [3] is 0.5 mg/L (≈ 1.55 µM); in experiment [4], over 16 mg/L; in [5], 0.5 mg/L (≈ 1.55 µM); in [6] it was 0.5 mg/L (≈ 1.55 µM); in experiment [7], 2 mg/L (≈ 6.2 µM); in experiment [8], over 16 mg/L. Besides, the minimal bactericidal concentration (MBC) was over 16 mg/L in experiment [9], over 16 mg/L in experiment [10], 16 mg/L (≈ 49.6 µM) in experiment [11] and 2 mg/L (≈ 6.2 µM) in [12]. Also, the MIC in [3] was 0.5 mg/L (≈ 1.55 µM); in [4], 16 mg/L (≈ 49.6 µM); in [5], 0.5 mg/L (≈ 1.55 µM); in experiment [6] it was 0.5 mg/L (≈ 1.55 µM); in experiment [7], 2 mg/L (≈ 6.2 µM); in experiment [8], over 16 mg/L. For the same compound, the MIC in experiment [9] worked out at 8 mg/L (≈ 24.8 µM); in experiment [10], 16 mg/L (≈ 49.6 µM); in experiment [11], 8 mg/L (≈ 24.8 µM); in [12], 2 mg/L (≈ 6.2 µM).

On to `CCn1cc(C(=O)O)c(=O)c2cc(F)c(-c3cc(C)nc(C)c3)cc21` [Win 52,522, 1-ethyl-6-fluoro-1,4-dihydro-7-(2,6-dimethyl-4-pyridinyl)-4-oxo-3-quinolinecarboxylic acid], for which the “times more potent in vitro than Win 35,439” value in experiment [1] (several Gram-positive cocci) is 2-8 times. The Survivors/Total in [2] (0.19 mg/kg po), in experiment [2] (0.19 mg/kg sc), in [2] (0.39 mg/kg po), in experiment [2] (0.39 mg/kg sc), in experiment [2] (0.78 mg/kg po) and in experiment [2] (0.78 mg/kg sc) was 0/10 in each case. In addition, the Survivors/Total in experiment [2] (1.56 mg/kg po) is recorded as 2/10; in experiment [2] (1.56 mg/kg sc), 4/10; in experiment [2] (3.13 mg/kg po), 9/10; in experiment [2] (3.13 mg/kg sc), 9/10; in experiment [2] (6.25 mg/kg po), 10/10; in experiment [2] (6.25 mg/kg sc), 10/10. For the same compound, the Survivors/Total in [2] (12.5 mg/kg po) and in [2] (12.5 mg/kg sc) was 10/10 in each case. In addition, the ED50 in experiment [2] (po) turned out to be 2.1 mg/kg; in [2] (sc), 1.8 mg/kg. Further, the results for the “times more efficient than Win 35,439” value in experiment [2] (po) and in [2] (sc) were 3.4 times and 3.9 times, respectively. In addition, the MBC came to 0.25 mg/L (≈ 0.735 µM) in [3]; 16 mg/L (≈ 47 µM) in experiment [4]; 0.25 mg/L (≈ 0.735 µM) in experiment [5]; 0.25 mg/L (≈ 0.735 µM) in experiment [6]; 0.5 mg/L (≈ 1.47 µM) in experiment [7]; 16 mg/L (≈ 47 µM) in experiment [8]. In addition, the MBC in [9] came to 16 mg/L (≈ 47 µM); in experiment [10] it was 16 mg/L (≈ 47 µM); in experiment [11], 16 mg/L (≈ 47 µM); in experiment [12], 0.5 mg/L (≈ 1.47 µM). Moreover, the MIC in experiment [3] is 0.25 mg/L (≈ 0.735 µM); in [4], 16 mg/L (≈ 47 µM); in [5], 0.25 mg/L (≈ 0.735 µM); in experiment [6] it was 0.25 mg/L (≈ 0.735 µM); in experiment [7], 0.25 mg/L (≈ 0.735 µM); in [8], 16 mg/L (≈ 47 µM). Besides, the MIC is 4 mg/L (≈ 11.8 µM) in experiment [9], 16 mg/L (≈ 47 µM) in [10], 16 mg/L (≈ 47 µM) in experiment [11] and 0.5 mg/L (≈ 1.47 µM) in experiment [12].

Broadly, the MBC is the smallest concentration meeting the test's criterion for killing. As a reminder, the MIC is the lowest concentration found to suppress growth.

Values taken from patent US4698350A, “1-ethyl-6-fluoro-1,4-dihydro- 7-(2,6-dimethyl-4-pyridinyl)-4-oxo-3-quinolinecarboxylic acid and antibacterial use thereof” (Sterling Drug Inc., priority 1984, dated 1987).
